In PubChem BioAssay AID248 (DTP/NCI, 2004):
Toxic doses and inconclusive results are not listed. Rule as the data show it: active = T/C of 150% or more; inactive = T/C below 125%. Peptide text beside a SMILES is read from it. * marks the point of attachment. Boc = CC(C)(C)OC(=O)*; OtBu = CC(C)(C)O*; NHNH2 = NN*

Tested on: L1210 leukemia ip in BDF1 mice, survival T/C
Experiment: NCI In Vivo Anticancer Drug Screen. Data for tumor model L1210 Leukemia (intraperitoneal) in B6D2F1 (BDF1) mice
Settings: endpoint: mean survival time, higher = longer survival
How it was run: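 Each compound was tested against a transplantable tumor grown in mice. The endpoint was survival, with treated animals benchmarked against vehicle controls as a simple ratio.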

[1] = dose: 100.0 mg/kg/injection, schedule: Q01DX001 (ip), vehicle: saline
[2] = dose: 200.0 mg/kg/injection, schedule: Q01DX001 (ip), vehicle: saline
[3] = dose: 400.0 mg/kg/injection, schedule: Q01DX001 (ip), vehicle: saline
[4] = dose: 25.0 mg/kg/injection, schedule: Q01DX009 (ip), vehicle: Klucel (hydroxypropylcellulose) (HPC)
[5] = dose: 50.0 mg/kg/injection, schedule: Q01DX009 (ip), vehicle: Klucel (hydroxypropylcellulose) (HPC)
[6] = dose: 100.0 mg/kg/injection, schedule: Q04DX002 (ip), vehicle: Klucel (hydroxypropylcellulose) (HPC)
[7] = dose: 200.0 mg/kg/injection, schedule: Q04DX002 (ip), vehicle: Klucel (hydroxypropylcellulose) (HPC)
[8] = dose: 400.0 mg/kg/injection, schedule: Q04DX002 (ip), vehicle: Klucel (hydroxypropylcellulose) (HPC)
[9] = dose: 100.0 mg/kg/injection, schedule: Q01DX009 (ip), vehicle: Klucel (hydroxypropylcellulose) (HPC)
[10] = dose: 100.0 mg/kg/injection, schedule: Q04DX003 (ip), vehicle: saline with Tween-80
[11] = dose: 200.0 mg/kg/injection, schedule: Q04DX003 (ip), vehicle: saline with Tween-80
[12] = dose: 400.0 mg/kg/injection, schedule: Q04DX003 (ip), vehicle: saline with Tween-80
[13] = dose: 100.0 mg/kg/injection, schedule: Q04DX003 (ip), vehicle: Klucel (hydroxypropylcellulose) (HPC)
[14] = dose: 200.0 mg/kg/injection, schedule: Q04DX003 (ip), vehicle: Klucel (hydroxypropylcellulose) (HPC)
[15] = dose: 50.0 mg/kg/injection, schedule: Q01DX001 (ip), vehicle: Klucel (hydroxypropylcellulose) (HPC)
[16] = dose: 100.0 mg/kg/injection, schedule: Q01DX001 (ip), vehicle: Klucel (hydroxypropylcellulose) (HPC)
[17] = dose: 200.0 mg/kg/injection, schedule: Q01DX001 (ip), vehicle: Klucel (hydroxypropylcellulose) (HPC)

Measured: T/C

CCC(C)C(NC(=O)CNC(=O)OC(C)(C)C)C(=O)NC(C(=O)NC(CCC(=O)OC(C)(C)C)C(=O)NN)C(C)C (stereo not drawn) (Boc-GIVE(OtBu)-NHNH2; configuration not given here)
inactive: dose: 75.0 mg/kg/injection, schedule: Q01DX001 (ip), vehicle: saline sonified 100 % of control | dose: 150.0 mg/kg/injection, schedule: Q01DX001 (ip), vehicle: saline sonified 92 % of control | dose: 300.0 mg/kg/injection, schedule: Q01DX001 (ip), vehicle: saline sonified 106 % of control

O=C(Nc1ccc([N+](=O)[O-])cc1Cl)c1ccc(C(=O)Nc2ccc([N+](=O)[O-])cc2Cl)cc1
inactive: [1] 96 % of control | [2] 94 % of control | [3] 91 % of control

O=C(O)c1c(F)c(F)c(-c2c(F)c(F)c(C(=O)O)c(F)c2F)c(F)c1F
inactive: dose: 100.0 mg/kg/injection, schedule: Q01DX001 (ip), vehicle: saline with Tween-80 93 % of control | dose: 200.0 mg/kg/injection, schedule: Q01DX001 (ip), vehicle: saline with Tween-80 95 % of control | dose: 400.0 mg/kg/injection, schedule: Q01DX001 (ip), vehicle: saline with Tween-80 93 % of control

CC1=C(C)CC(c2ccccc2)C(C(=O)O)C1 (stereo not drawn)
inactive: dose: 176.0 mg/kg/injection, schedule: Q01DX001 (ip), vehicle: other 100 % of control | dose: 266.0 mg/kg/injection, schedule: Q01DX001 (ip), vehicle: other 100 % of control | dose: 400.0 mg/kg/injection, schedule: Q01DX001 (ip), vehicle: other 101 % of control

c1ccc2c(c1)cc[n+]1c3ccccc3ccc21
inactive: dose: 1.25 mg/kg/injection, schedule: Q01DX001 (ip), vehicle: saline 97 % of control | dose: 2.5 mg/kg/injection, schedule: Q01DX001 (ip), vehicle: saline 97 % of control | dose: 5.0 mg/kg/injection, schedule: Q01DX001 (ip), vehicle: saline 103 % of control | dose: 10.0 mg/kg/injection, schedule: Q01DX001 (ip), vehicle: saline 107 % of control

CCCCCCCCCCCCCCCCCCCC[As](=O)(O)CCCCCCCCCCCCCCCCCCCC
inactive: dose: 50.0 mg/kg/injection, schedule: Q01DX001 (ip), vehicle: saline 97 % of control | [1] 101 % of control | [2] 95 % of control | [3] 103 % of control

C1CSCS1
inactive: dose: 12.5 mg/kg/injection, schedule: Q04DX002 (ip), vehicle: saline with Tween-80 103 % of control | dose: 25.0 mg/kg/injection, schedule: Q04DX002 (ip), vehicle: saline with Tween-80 106 % of control | dose: 50.0 mg/kg/injection, schedule: Q04DX002 (ip), vehicle: saline with Tween-80 106 % of control

CC(C)=CCC(N)C(C)c1ccccc1 (stereo not drawn)
inactive: dose: 12.5 mg/kg/injection, schedule: Q01DX009 (ip), vehicle: Klucel (hydroxypropylcellulose) (HPC) 96 % of control | [4] 98 % of control | dose: 25.0 mg/kg/injection, schedule: Q04DX002 (ip), vehicle: Klucel (hydroxypropylcellulose) (HPC) 94 % of control | [5] 104 % of control | dose: 50.0 mg/kg/injection, schedule: Q04DX002 (ip), vehicle: Klucel (hydroxypropylcellulose) (HPC) 105 % of control | [6] 102 % of control

C[C@]12CC[C@@H]3c4ccccc4CC[C@H]3[C@@H]1CC[C@@H]2O
inactive: dose: 62.5 mg/kg/injection, schedule: Q01DX015 (sc), vehicle: steriod suspending solution 97 % of control | dose: 125.0 mg/kg/injection, schedule: Q01DX015 (sc), vehicle: steriod suspending solution 101 % of control | dose: 250.0 mg/kg/injection, schedule: Q01DX015 (sc), vehicle: steriod suspending solution 100 % of control | dose: 500.0 mg/kg/injection, schedule: Q01DX015 (sc), vehicle: steriod suspending solution 100 % of control

CCOC(=O)C1(C(=O)OCC)C(C)CC(=O)N1c1ccccc1OC (stereo not drawn)
inactive: [6] 106 % of control | [7] 103 % of control | [8] 97 % of control

COc1ccc(-c2c(CO)cc(OC)c(OC)c2OC)c(CO)c1
inactive: dose: 75.0 mg/kg/injection, schedule: Q01DX001 (ip), vehicle: saline 99 % of control | dose: 150.0 mg/kg/injection, schedule: Q01DX001 (ip), vehicle: saline 99 % of control | dose: 300.0 mg/kg/injection, schedule: Q01DX001 (ip), vehicle: saline 92 % of control

O=c1nccc(Nc2ccccc2)[nH]1
inactive: [4] 98 % of control | [5] 93 % of control | [9] 98 % of control

CC(C)Cc1ccc(N=Nc2ccccc2)cc1
inactive: [10] 93 % of control | [11] 93 % of control | [12] 88 % of control

CCNCC
inactive: dose: 100.0 mg/kg/injection, schedule: Q04DX003 (ip), vehicle: saline 93 % of control | dose: 200.0 mg/kg/injection, schedule: Q04DX003 (ip), vehicle: saline 101 % of control | dose: 400.0 mg/kg/injection, schedule: Q04DX003 (ip), vehicle: saline 101 % of control

CC(=O)OC1CCC2(COS(=O)(=O)c3ccc(C)cc3)C(=CCC3C2CCC2(C)C(C(C)CCCC(C)C)CCC32)C1 (stereo not drawn)
inactive: dose: 100.0 mg/kg/injection, schedule: Q04DX002 (ip), vehicle: steriod suspending solution 101 % of control | dose: 200.0 mg/kg/injection, schedule: Q04DX002 (ip), vehicle: steriod suspending solution 104 % of control | dose: 400.0 mg/kg/injection, schedule: Q04DX002 (ip), vehicle: steriod suspending solution 96 % of control

COC(=O)c1nc2c(N)nc(-c3ccccc3)nc2nc1N
inactive: [13] 103 % of control | [14] 98 % of control | dose: 400.0 mg/kg/injection, schedule: Q04DX003 (ip), vehicle: Klucel (hydroxypropylcellulose) (HPC) 106 % of control

CC(C)C(NC(=O)NCCCl)c1ccccc1 (stereo not drawn)
inactive: [13] 88 % of control | [14] 88 % of control

O=C(NC1CCCCC1)Oc1cc(CCl)cc(CCl)c1
inactive: [5] 112 % of control | [9] 112 % of control

COC(=O)c1[nH]nc(-c2ccccc2-c2ccccc2C(=O)O)c1C(=O)OC
inactive: [6] 97 % of control | [7] 108 % of control | [8] 105 % of control

COc1ccc(N=Nc2ccccn2)cc1
inactive: [15] 103 % of control | [16] 105 % of control | [17] 103 % of control

CCOC(=O)Cc1ccc2ccccc2c1
inactive: [10] 100 % of control | [11] 96 % of control | [12] 104 % of control

CCCCCCCCCCCCCC(=O)CCC
inactive: dose: 100.0 mg/kg/injection, schedule: Q01DX009 (ip), vehicle: saline with Tween-80 106 % of control | [10] 86 % of control | dose: 200.0 mg/kg/injection, schedule: Q01DX009 (ip), vehicle: saline with Tween-80 100 % of control | [11] 110 % of control | dose: 400.0 mg/kg/injection, schedule: Q01DX009 (ip), vehicle: saline with Tween-80 104 % of control | [12] 100 % of control

CN(C)CCC(O)(c1ccccc1)c1ccccc1Cl (stereo not drawn)
inactive: dose: 100.0 mg/kg/injection, schedule: Q01DX001 (ip), vehicle: carboxymethylcellulose (CMC) 90 % of control | dose: 200.0 mg/kg/injection, schedule: Q01DX001 (ip), vehicle: carboxymethylcellulose (CMC) 97 % of control | dose: 400.0 mg/kg/injection, schedule: Q01DX001 (ip), vehicle: carboxymethylcellulose (CMC) 94 % of control

COc1ccc(-n2cccc2C(N)=O)cc1OC
inactive: [6] 103 % of control | [7] 100 % of control | [8] 90 % of control

Cc1cccc2c1NC(c1ccccc1)C(C)S2(=O)=O (stereo not drawn)
inactive: [15] 106 % of control | [16] 96 % of control | [17] 102 % of control | dose: 400.0 mg/kg/injection, schedule: Q01DX001 (ip), vehicle: Klucel (hydroxypropylcellulose) (HPC) 96 % of control
